Assay results taken from US20260297080A1, “BICYCLIC COMPOUNDS AS CDK INHIBITORS” (BeOne Medicines I GmbH, priority 2022, published 2026).

What was measured:
[1] = molecular target: CDK2/Cyclin E1 (Homo sapiens, UniProt P24941); assay: CDK2/Cyclin E1 Biochemical Assay (TR-FRET), 0.060 mM ATP; conditions: 0.15 μM Rb (Ser780)-biotin substrate, pH7.0, 60 min preincubation, 120 min reaction, room temperature
In short: (§1)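 Percent inhibition was derived from the 665 nm/620 nm TR-FRET ratio after a 120-minute room-temperature reaction on 0.15 μM Rb (Ser780)-biotin, preceded by 60-minute enzyme–compound preincubation. IC50 came from four-parameter logistic fitting.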

[2] = molecular target: CDK1/Cyclin B1 (Homo sapiens, UniProt P06493); assay: CDK1/Cyclin B1 Biochemical Assay (TR-FRET), 0.015 mM ATP; conditions: 0.15 μM Rb (Ser780)-biotin substrate, pH7.0, 60 min preincubation, 120 min reaction, room temperature
Chain of CDK1/Cyclin B1 (P06493 whole entry): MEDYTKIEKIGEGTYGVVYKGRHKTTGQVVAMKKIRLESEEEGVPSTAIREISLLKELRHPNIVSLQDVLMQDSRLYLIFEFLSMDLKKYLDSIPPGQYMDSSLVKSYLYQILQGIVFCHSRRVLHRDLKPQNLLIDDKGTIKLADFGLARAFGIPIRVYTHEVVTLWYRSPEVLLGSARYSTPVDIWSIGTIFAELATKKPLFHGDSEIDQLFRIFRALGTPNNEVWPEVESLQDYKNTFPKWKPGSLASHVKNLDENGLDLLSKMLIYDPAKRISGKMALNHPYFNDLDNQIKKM
Chain of CDK1/Cyclin B1 (P14635 whole entry partner): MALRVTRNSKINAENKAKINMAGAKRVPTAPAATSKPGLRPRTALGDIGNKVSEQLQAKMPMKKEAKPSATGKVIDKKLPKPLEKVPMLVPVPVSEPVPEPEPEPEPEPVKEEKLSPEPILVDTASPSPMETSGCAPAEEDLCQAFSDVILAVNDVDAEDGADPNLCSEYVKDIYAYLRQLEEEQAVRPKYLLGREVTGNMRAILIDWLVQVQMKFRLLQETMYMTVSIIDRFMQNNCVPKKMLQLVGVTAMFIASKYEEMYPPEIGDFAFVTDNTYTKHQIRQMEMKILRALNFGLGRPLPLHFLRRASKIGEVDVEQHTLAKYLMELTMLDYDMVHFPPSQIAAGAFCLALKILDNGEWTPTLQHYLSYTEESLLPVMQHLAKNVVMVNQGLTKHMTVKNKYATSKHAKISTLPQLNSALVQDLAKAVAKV
In short: as §1

| IC50 [1] [nM] | IC50 [2] [nM] | Structure (SMILES) |
| --- | --- | --- |
| 3.7 | 86 | CC(C)NC(=O)O[C@H]1CC[C@@H](c2cc(Nc3ccc4c(c3)C(C)(C)S(=O)(=O)N4)n[nH]2)C1 (relative stereo) [Example 194, cis-3-(3-((3,3-dimethyl-2,2-dioxido-1,3-dihydrobenzo[c]isothiazol-5-yl)amino)-1H-pyrazol-5-yl)cyclopentyl isopropylcarbamate] |
| 12 | 119 | COCC(C)NC(=O)O[C@H]1CC[C@@H](c2cc(Nc3ccc4c(c3)CS(=O)(=O)N4)n[nH]2)C1 (relative stereo) [Example 197, cis-3-(3-((2,2-dioxido-1,3-dihydrobenzo[c]isothiazol-5-yl)amino)-1H-pyrazol-5-yl)cyclopentyl(1-methoxypropan-2-yl)carbamate] |
| 5.5 | 84 | CC(C)NC(=O)O[C@H]1CC[C@@H](c2cc(Nc3ccc4c(c3)C3(CCC3)S(=O)(=O)N4)n[nH]2)C1 (relative stereo) [Example 199, cis-3-(3-((2,2-dioxido-1H-spiro[benzo[c]isothiazole-3,1′-cyclobutan]-5-yl)amino)-1H-pyrazol-5-yl)cyclopentyl isopropylcarbamate] |
| 5.5 | 75 | CC(C)NC(=O)O[C@H]1CC[C@@H](c2cc(Nc3ccc4c(c3)C3(CC3)S(=O)(=O)N4)n[nH]2)C1 (relative stereo) [Example 200, cis-3-(3-((2,2-dioxido-1H-spiro[benzo[c]isothiazole-3, 1′-cyclopropan]-5-yl)amino)-1H-pyrazol-5-yl)cyclopentyl isopropylcarbamate] |
| 11 | 130 | CC(C)NC(=O)O[C@H]1CC[C@@H](c2cc(Nc3ccc4c(c3)C3(CC3)S(=O)(=O)N4C)n[nH]2)C1 (relative stereo) [Example 201, cis-3-(3-((1-methyl-2,2-dioxido-1H-spiro[benzo[c]isothiazole-3,l′-cyclopropan]-5-yl)amino-1H-pyrazol-5-yl)cyclopentyl isopropylcarbamate] |
| 6.2 | 98 | CC(C)NC(=O)O[C@H]1CC[C@@H](c2cc(Nc3ccc4c(c3)CS(=O)(=O)N4C(C)C)n[nH]2)C1 (relative stereo) [Example 202, cis-3-(3-((1-isopropyl-2,2-dioxido-1,3-dihydrobenzo[c]isothiazol-5-yl)amino)-1H-pyrazol-5-yl)cyclopentyl isopropylcarbamate] |
| 5.4 | 41 | CC(C)NC(=O)O[C@H]1CC[C@@H](c2cc(Nc3ccc4c(c3)CS(=O)(=O)N4C3CC3)n[nH]2)C1 (relative stereo) [Example 203, cis-3-(3-((1-cyclopropyl-2,2-dioxido-1,3-dihydrobenzo[c]isothiazol-5-yl)amino)-1H-pyrazol-5-yl)cyclopentyl isopropylcarbamate] |
| 1.8 | 51 | COCCN1c2ccc(Nc3cc([C@@H]4CC[C@H](OC(=O)NC(C)C)C4)[nH]n3)cc2CS1(=O)=O (relative stereo) [Example 204, cis-3-(3-((1-(2-methoxyethyl)-2,2-dioxido-1,3-dihydrobenzo[c]isothiazol-5-yl)amino)-1H-pyrazol-5-yl)cyclopentyl isopropylcarbamate] |
| 6.4 | 63 | [2H]C([2H])([2H])N1c2ccc(Nc3cc([C@@H]4CC[C@H](OC(=O)NC(C)C)C4)[nH]n3)cc2CS1(=O)=O (relative stereo) [Example 206, cis-3-(3-((1-(methyl-d3)-2,2-dioxido-1,3-dihydrobenzo[c]isothiazol-5-yl)amino)-1H-pyrazol-5-yl)cyclopentyl isopropylcarbamate] |
| 6.6 | 35 | CC(C)NC(=O)O[C@H]1CC[C@@H](c2cc(Nc3ccc4c(c3)C(C)S(=O)(=O)N4C)n[nH]2)C1 (relative stereo) [Example 207, cis-3-(3-((1,3-dimethyl-2,2-dioxido-1,3-dihydrobenzo[c]isothiazol-5-yl)amino)-1H-pyrazol-5-yl)cyclopentyl isopropylcarbamate] |
| 3.1 | 30 | CC(C)NC(=O)O[C@H]1CC[C@@H](c2cc(Nc3ccc4c(c3)CS(=O)(=O)N4CCCO)n[nH]2)C1 (relative stereo) [Example 215, cis-3-(3-((1-(3-hydroxypropyl)-2,2-dioxido-1,3-dihydrobenzo[c]isothiazol-5-yl)amino)-1H-pyrazol-5-yl)cyclopentyl isopropylcarbamate] |

The remaining lines, values behind:

| Structure (SMILES) | IC50 [1] [nM] | IC50 [2] [nM] |
| --- | --- | --- |
| CC(C)NC(=O)O[C@H]1CC[C@@H](c2cc(Nc3ccc4c(c3F)S(=O)(=O)N(C(C)C)C4)n[nH]2)C1 (relative stereo) [Example 193, cis-3-(3-((7-fluoro-2-isopropyl-1,1-dioxido-2,3-dihydrobenzo[d]isothiazol-6-yl)amino)-1H-pyrazol-5-yl)cyclopentyl isopropylcarbamate] | 16 | 362 |
| CN1c2ccc(Nc3cc([C@@H]4CC[C@H](OC(=O)NC5CCC56CC6)C4)[nH]n3)cc2CS1(=O)=O (relative stereo) [Example 196, cis-3-(3-((1-methyl-2,2-dioxido-1,3-dihydrobenzo[c]isothiazol-5-yl)amino)-1H-pyrazol-5-yl)cyclopentyl spiro[2.3]hexan-4-ylcarbamate] | 4.3 | 47 |
| O=C(NCCC(F)(F)F)O[C@@H]1CC[C@H](c2cc(Nc3ccc4c(c3)CS(=O)(=O)N4)n[nH]2)C1 (relative stereo) [Example 198, cis-3-(3-((2,2-dioxido-1,3-dihydrobenzo[c]isothiazol-5-yl)amino)-1H-pyrazol-5-yl)cyclopentyl(3,3,3-trifluoropropyl)carbamate] | 18 | 75 |
| CC(C)NC(=O)O[C@H]1CC[C@@H](c2cc(Nc3ccc4c(c3)CS(=O)(=O)N4CC(F)(F)F)n[nH]2)C1 (relative stereo) [Example 205, cis-3-(3-((2,2-dioxido-1-(2,2,2-trifluoroethyl)-1,3-dihydrobenzo[c]isothiazol-5-yl)amino)-1H-pyrazol-5-yl)cyclopentyl isopropylcarbamate] | 7.5 | 41 |
| CC(C)NC(=O)O[C@H]1CC[C@@H](c2cc(Nc3ccc4c(c3)CS(=O)(=O)N4C(C)C3COC3)n[nH]2)C1 (relative stereo) [Example 208, cis-3-(3-((1-(1-(oxetan-3-yl)ethyl)-2,2-dioxido-1,3-dihydrobenzo[c]isothiazol-5-yl)amino)-1H-pyrazol-5-yl)cyclopentyl isopropylcarbamate] | 16 | 262 |
| CC(C)NC(=O)O[C@H]1CC[C@@H](c2cc(Nc3ccc4c(c3)CS(=O)(=O)N4C3COC3)n[nH]2)C1 (relative stereo) [Example 209, cis-3-(3-((1-(oxetan-3-yl)-2,2-dioxido-1,3-dihydrobenzo[c]isothiazol-5-yl)amino)-1H-pyrazol-5-yl)cyclopentyl isopropylcarbamate] | 5.4 | 37 |
| CC(C)NC(=O)O[C@H]1CC[C@@H](c2cc(Nc3ccc4c(c3)CS(=O)(=O)N4CC3COC3)n[nH]2)C1 (relative stereo) [Example 210, cis-3-(3-((1-(oxetan-3-ylmethyl)-2,2-dioxido-1,3-dihydrobenzo[c]isothiazol-5-yl)amino)-1H-pyrazol-5-yl)cyclopentyl isopropylcarbamate] | 2.1 | 40 |
| CC(C)NC(=O)O[C@H]1CC[C@@H](c2cc(Nc3ccc4c(c3)CS(=O)(=O)N4CC3CCC3)n[nH]2)C1 (relative stereo) [Example 211, cis-3-(3-((1-(cyclobutylmethyl)-2,2-dioxido-1,3-dihydrobenzo[c]isothiazol-5-yl)amino)-1H-pyrazol-5-yl)cyclopentyl isopropylcarbamate] | 8.4 | 197 |
| CC(C)NC(=O)O[C@H]1CC[C@@H](c2cc(Nc3ccc4c(c3)CS(=O)(=O)N4CCN3CCOCC3)n[nH]2)C1 (relative stereo) [Example 212, cis-3-(3-((1-(2-morpholinoethyl)-2,2-dioxido-1,3-dihydrobenzo[c]isothiazol-5-yl)amino)-1H-pyrazol-5-yl)cyclopentyl isopropylcarbamate] | 3.5 | 60 |
| CC(C)NC(=O)O[C@H]1CC[C@@H](c2cc(Nc3ccc4c(c3)CS(=O)(=O)N4CC3CN(C)C3)n[nH]2)C1 (relative stereo) [Example 213, cis-3-(3-((1-((1-methylazetidin-3-yl)methyl)-2,2-dioxido-1,3-dihydrobenzo[c]isothiazol-5-yl)amino)-1H-pyrazol-5-yl)cyclopentyl isopropylcarbamate] | 2.7 | 30 |
| CC(=O)N1CC(CN2c3ccc(Nc4cc([C@@H]5CC[C@H](OC(=O)NC(C)C)C5)[nH]n4)cc3CS2(=O)=O)C1 (relative stereo) [Example 214, cis-3-(3-((1-((1-acetylazetidin-3-yl)methyl)-2,2-dioxido-1,3-dihydrobenzo[c]isothiazol-5-yl)amino)-1H-pyrazol-5-yl)cyclopentyl isopropylcarbamate] | 1.7 | 44 |
| CC(C)NC(=O)O[C@H]1CC[C@@H](c2cc(Nc3ccc4c(c3)CS(=O)(=O)N4CC(C)(C)O)n[nH]2)C1 (relative stereo) [Example 216, cis-3-(3-((1-(2-hydroxy-2-methylpropyl)-2,2-dioxido-1,3-dihydrobenzo[c]isothiazol-5-yl)amino)-1H-pyrazol-5-yl)cyclopentyl isopropylcarbamate] | 7.8 | 54 |
| CC(C)NC(=O)O[C@H]1CC[C@@H](c2cc(Nc3ccc4c(c3)CS(=O)(=O)N4CCC3CCOCC3)n[nH]2)C1 (relative stereo) [Example 217, cis-3-(3-((2,2-dioxido-1-(2-(tetrahydro-2H-pyran-4-yl)ethyl)-1,3-dihydrobenzo[c]isothiazol-5-yl)amino)-1H-pyrazol-5-yl)cyclopentyl isopropylcarbamate] | 8.8 | 126 |
